From ChEMBL document CHEMBL4251580, “Exploiting polypharmacology for improving therapeutic outcome of kinase inhibitors (KIs): An update of recent medicinal chemistry efforts” (Eur J Med Chem, 2018)
pIC50: −log10 of the molar value.

Tests used:
MDA-MB-231 = assay: Growth inhibition of human MDA-MB-231 cells incubated for 72 hrs by Cell-titer Glo luciferase-based assay; type: functional; details: MDA-MB-231, 72 h
[1] = target: Epidermal growth factor receptor (Homo sapiens, UniProt P00533); assay: Inhibition of C-terminal His-tagged and N-terminal GST tagged human EGFR (668 to 1210 residues) expressed in baculovirus infected Sf9 cells using KHKKLAEGSAYEEV substrate peptide and gamma-[32P]ATP
[2] = Inhibition of NF-kappaB (unknown origin) expressed in human U937 cells by luciferase reporter gene assay; type: cell-based; details: U-937

Chain of Epidermal growth factor receptor (P00533 whole entry, the tested form may be a part): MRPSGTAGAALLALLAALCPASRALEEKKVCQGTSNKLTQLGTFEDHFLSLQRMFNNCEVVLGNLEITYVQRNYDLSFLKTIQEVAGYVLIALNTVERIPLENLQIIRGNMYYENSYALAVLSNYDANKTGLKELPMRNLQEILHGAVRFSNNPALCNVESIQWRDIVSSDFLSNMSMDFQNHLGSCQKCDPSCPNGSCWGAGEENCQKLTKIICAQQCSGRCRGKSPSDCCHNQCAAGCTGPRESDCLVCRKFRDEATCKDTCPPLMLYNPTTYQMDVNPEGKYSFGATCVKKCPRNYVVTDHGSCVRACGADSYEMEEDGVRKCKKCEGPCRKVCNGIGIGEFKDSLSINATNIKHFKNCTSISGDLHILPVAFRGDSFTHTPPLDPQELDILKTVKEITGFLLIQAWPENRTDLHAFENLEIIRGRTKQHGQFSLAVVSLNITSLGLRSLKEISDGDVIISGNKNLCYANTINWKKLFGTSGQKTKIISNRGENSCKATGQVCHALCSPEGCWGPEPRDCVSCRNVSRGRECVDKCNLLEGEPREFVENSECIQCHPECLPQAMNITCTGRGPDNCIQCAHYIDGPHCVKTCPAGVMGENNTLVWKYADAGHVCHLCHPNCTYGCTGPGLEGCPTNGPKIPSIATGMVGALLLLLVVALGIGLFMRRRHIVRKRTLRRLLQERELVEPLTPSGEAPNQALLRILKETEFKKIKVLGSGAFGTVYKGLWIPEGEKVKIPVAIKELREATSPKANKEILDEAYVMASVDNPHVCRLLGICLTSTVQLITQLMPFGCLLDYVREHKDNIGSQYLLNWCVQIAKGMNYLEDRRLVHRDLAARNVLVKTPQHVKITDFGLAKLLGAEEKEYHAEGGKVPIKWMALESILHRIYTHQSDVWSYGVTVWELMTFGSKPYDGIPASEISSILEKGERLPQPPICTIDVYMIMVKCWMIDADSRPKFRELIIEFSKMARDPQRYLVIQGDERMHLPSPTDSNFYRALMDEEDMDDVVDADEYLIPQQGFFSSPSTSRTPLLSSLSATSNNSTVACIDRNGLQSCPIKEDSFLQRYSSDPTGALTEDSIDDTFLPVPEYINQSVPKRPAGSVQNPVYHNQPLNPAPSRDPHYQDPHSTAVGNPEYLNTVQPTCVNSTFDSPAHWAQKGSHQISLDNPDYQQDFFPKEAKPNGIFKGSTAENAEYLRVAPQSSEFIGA

Fc1cc(F)cc(NC(=S)Nc2ccc3ncnc(Nc4cccc(Br)c4)c3c2)c1
GI50 (MDA-MB-231): 1100 nM
pIC50 [1]: 7.22
pIC50 [2]: 6.52
